Tests used:
PBMCs = assay: Ex vivo IFNγ ELISpot assay; assay type: cell-based, human; details: for Effector CD8^+ T cell responses across multiple individuals: ex vivo IFNγ ELISpot, HLA-A*02:01-restricted, Fig. 6c
Description: IFNγ ELISpot assays were performed according to the manufacturer’s instructions (Mabtech). PBMCs were incubated with individual peptides from EBV at a final concentration of 0.5 μg ml^−1 for 16–18 h. Positive controls were anti-human CD3 (Clone OKT3, BioLegend, 0.5 μg ml^−1) and anti-human CD28 (Clone CD28.2, BioLegend, 0.5 μg ml^−1) antibodies. The number of spot-forming units in the highest-value DMSO control well was subtracted from each experimental well. Responses were considered positive if both replicates had greater than or equal to five spot-forming units per well above background.

CD8^+ T cells = assay: Ex vivo proliferation assay (CellTrace Far Red); assay type: cell-based, human; details: HLA-A*02:01-restricted, Fig. 6d
Description: PBMCs were suspended at 1 × 10^6 cells per ml in 1 μM CellTrace Far Red dye (ThermoFisher) in PBS and incubated at 37 °C for 20 min. Cells were protected from light and mixed every 5 min during the incubation. RPMI supplemented with 10% fetal bovine serum was added to quench the reaction for 5 min, followed by centrifugation at 1,500 rpm for 3 min before resuspension in culture media. Cells were plated into 96-well U-bottom plates (Corning) (200,000 cells per well in 200 μl of culture media) and incubated with individual EBV peptides at a concentration of 0.5 μg ml^−1 for 5 days. Cells were washed with PBS supplemented with 2% fetal bovine serum and stained with anti-human CD3-BUV395 (Clone UCHT1, BD Biosciences, 1:100 dilution), anti-human CD4-PE-Cy7 (Clone OKT4, BioLegend, 1:100 dilution), anti-human CD8-BV605 (Clone SK1, BioLegend, 1:100 dilution) and live/dead violet viability dye (Life Technologies). Cells were washed and fixed in 2% paraformaldehyde and flow cytometric analysis was performed on a BD LSR Fortessa (BD Biosciences).

Sequence	Immunogenicity (T cell reactivity) (PBMCs; HLA-A*02:01, 15mer, LMP2A: 71-85)	Effector CD8^+ T cell responses across multiple individuals (PBMCs)	Memory CD8^+ T cell responses across multiple individuals (CD8^+ T cells)
HSDYQPLGTQDQSLY	immunogenic	–	–
SIIPRTPDV [A*02-SV9]	–	capable of eliciting	capable of eliciting
YVLDHLIVV [A*02-YV9]	–	capable of eliciting	capable of eliciting
